The values that follow come from ChEMBL document CHEMBL2074049, “Identity of the organic cation transporter OCT3 as the extraneuronal monoamine transporter (uptake2) and evidence for the expression of the transporter in the brain” (J Biol Chem, 1998).

Data set [1] has as its target T1, Solute carrier family 22 member 3 (Rattus norvegicus, UniProt O88446).
T1 sequence (O88446 whole entry): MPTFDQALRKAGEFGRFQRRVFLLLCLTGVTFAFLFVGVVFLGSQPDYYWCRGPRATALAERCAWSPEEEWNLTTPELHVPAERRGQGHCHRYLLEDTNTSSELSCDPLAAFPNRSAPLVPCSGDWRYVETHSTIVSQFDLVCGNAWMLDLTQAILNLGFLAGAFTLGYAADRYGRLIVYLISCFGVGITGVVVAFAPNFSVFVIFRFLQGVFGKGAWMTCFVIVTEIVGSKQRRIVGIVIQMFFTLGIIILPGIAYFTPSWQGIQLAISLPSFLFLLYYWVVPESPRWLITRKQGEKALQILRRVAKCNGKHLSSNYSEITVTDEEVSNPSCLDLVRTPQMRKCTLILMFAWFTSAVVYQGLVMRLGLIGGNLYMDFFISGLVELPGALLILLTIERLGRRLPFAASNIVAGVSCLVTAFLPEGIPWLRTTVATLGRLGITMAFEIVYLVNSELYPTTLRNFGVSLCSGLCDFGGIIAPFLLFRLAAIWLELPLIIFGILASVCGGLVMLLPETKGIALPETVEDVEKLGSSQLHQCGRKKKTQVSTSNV
Description: TP_TRANSPORTER: inhibition of MPP+ uptake (MPP+: 1 uM) in OCT3-expressing HRPE cells. It counts as functional, cell-based.

The target in data set [2] is T2, Solute carrier family 22 member 2 (Rattus norvegicus, UniProt Q9R0W2).
T2 sequence (Q9R0W2 whole entry): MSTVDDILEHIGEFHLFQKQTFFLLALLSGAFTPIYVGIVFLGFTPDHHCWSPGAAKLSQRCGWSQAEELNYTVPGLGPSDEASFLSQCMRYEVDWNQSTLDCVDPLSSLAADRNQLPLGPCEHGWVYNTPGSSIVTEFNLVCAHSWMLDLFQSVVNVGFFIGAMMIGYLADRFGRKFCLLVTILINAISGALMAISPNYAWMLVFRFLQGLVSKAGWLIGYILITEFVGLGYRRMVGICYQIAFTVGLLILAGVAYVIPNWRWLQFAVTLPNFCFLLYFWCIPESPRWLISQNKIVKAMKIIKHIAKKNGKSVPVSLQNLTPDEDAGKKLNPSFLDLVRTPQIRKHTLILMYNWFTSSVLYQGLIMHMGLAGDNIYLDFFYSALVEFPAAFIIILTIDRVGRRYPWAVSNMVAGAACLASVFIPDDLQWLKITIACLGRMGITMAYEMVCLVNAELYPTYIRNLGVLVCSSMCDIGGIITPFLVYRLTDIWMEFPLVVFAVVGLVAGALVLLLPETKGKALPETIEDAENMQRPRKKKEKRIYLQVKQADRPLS
Nature of the data set: TP_TRANSPORTER: inhibition of TEA uptake (TEA: 20 uM) in OCT2-expressing HRPE cells. It is filed as functional, cell-based.

Data set [3] has as its target T1, Solute carrier family 22 member 3. Description: TP_TRANSPORTER: inhibition of Dopamine uptake (Dopamine: 0.15 uM, Cocaine: 100 uM) in OCT3-expressing HRPE cells. It is filed as functional, cell-based. Conditions: human.
Data set [4] deals with T3, Solute carrier family 22 member 1 (Rattus norvegicus, UniProt Q63089).
T3 sequence (Q63089 whole entry): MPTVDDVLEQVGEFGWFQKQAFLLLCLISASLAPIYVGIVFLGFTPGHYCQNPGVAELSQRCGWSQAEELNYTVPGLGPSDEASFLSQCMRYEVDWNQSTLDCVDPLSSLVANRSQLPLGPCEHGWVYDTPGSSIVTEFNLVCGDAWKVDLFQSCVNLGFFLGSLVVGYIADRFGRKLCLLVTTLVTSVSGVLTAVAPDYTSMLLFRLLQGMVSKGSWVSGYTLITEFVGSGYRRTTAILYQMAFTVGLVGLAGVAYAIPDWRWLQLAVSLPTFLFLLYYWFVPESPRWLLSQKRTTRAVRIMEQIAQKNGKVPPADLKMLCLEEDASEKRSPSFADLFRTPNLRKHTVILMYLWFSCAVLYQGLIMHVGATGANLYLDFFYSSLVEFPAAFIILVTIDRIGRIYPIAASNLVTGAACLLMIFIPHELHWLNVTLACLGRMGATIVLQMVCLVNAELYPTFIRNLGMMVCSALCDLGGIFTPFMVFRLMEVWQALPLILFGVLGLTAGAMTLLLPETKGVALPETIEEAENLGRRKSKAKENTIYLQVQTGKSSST
Nature of the data set: TP_TRANSPORTER: inhibition of TEA uptake (TEA: 20 uM, Corticosterone: 100 uM) in OCT1-expressing HRPE cells. As to conditions: human. It counts as functional, cell-based.

Data set [5] concerns the target T1, Solute carrier family 22 member 3. Nature of the data set: TP_TRANSPORTER: inhibition of TEA uptake (TEA: 20 uM) in OCT3-expressing HRPE cells. It is filed as functional, cell-based.
Data set [6] has as its target T3, Solute carrier family 22 member 1. Description: TP_TRANSPORTER: inhibition of TEA uptake (TEA: 20 uM, Deoxycorticosterone: 100 uM) in OCT1-expressing HRPE cells. It counts as functional, cell-based. As to conditions: human.
Data set [7] concerns the target T1, Solute carrier family 22 member 3. Description: (§1) TP_TRANSPORTER: uptake in OCT3-expressing HRPE cells. It is filed as functional, cell-based. As to conditions: human.
The target of data set [8] is T3, Solute carrier family 22 member 1. Nature of the data set: TP_TRANSPORTER: inhibition of TEA uptake (TEA: 20 uM, beta-Estradiol: 100 uM) in OCT1-expressing HRPE cells. It is filed as functional, cell-based. Conditions: human.
The target is the same in data set [9]. Nature of the data set: TP_TRANSPORTER: inhibition of TEA uptake in OCT1-expressing HRPE cells. It counts as functional, cell-based. As to conditions: human.
Data set [10] shares this target. Description: TP_TRANSPORTER: inhibition of TEA uptake (TEA: 20 uM, Testosterone: 100 uM) in OCT1-expressing HRPE cells. It is filed as functional, cell-based. Conditions: human.
Substrate in data set [11]: C[n+]1ccc(-c2ccccc2)cc1
The description is as §1. It is filed as functional, cell-based.

Substrate in data set [12]: C[n+]1ccc(-c2ccccc2)cc1
Nature of the data set: TP_TRANSPORTER: uptake (electrogenesis, -50mV) in Xenopus laevis oocytes. It is filed as functional, cell-based, Oocyte.

The IC50 is the concentration that inhibits the measured activity by half. High values mean weaker potency in that assay, low ones greater potency in that assay. What is called Km is the substrate concentration at which the rate is half of its maximum.

Take `CC(N)Cc1ccccc1` (stereo unspecified) [AMPHETAMINE]: in data set [1], the 50% inhibitory concentration (IC50) came out at 42 µM.
Take `C[C@]12C[C@H](O)[C@H]3[C@@H](CCC4=CC(=O)CC[C@@]43C)[C@@H]1CC[C@@H]2C(=O)CO` [CORTICOSTERONE]: the 50% inhibitory concentration (IC50) in data set [2] worked out at 4.2 µM; in data set [5], 4.9 µM. Moreover, the Activity entry in [3] was “inhibitor [(at a rough estimate) 5 % of control]”; in [4], “is not an inhibitor [-]”.
Take `CNCCCN1c2ccccc2CCc2ccccc21` [DESIPRAMINE]: the concentration for half-maximal inhibition (IC50) in data set [1] turned out to be 68 µM.
In the case of `C[C@]12CC[C@H]3[C@@H](CCC4=CC(=O)CC[C@@]43C)[C@@H]1CC[C@@H]2C(=O)CO` [DESOXYCORTICOSTERONE], the half-maximal inhibitory concentration (IC50) worked out at 1.9 µM in data set [2] and 8.4 µM in [5]. The Activity entry in data set [6] is “is not an inhibitor [-]”.
As for `NCCc1ccc(O)c(O)c1` [DOPAMINE], the IC50 in data set [2] is 2300 µM; in [1], 62 µM; in [5] it was 384 µM. Further, the Activity result in [7] was “substrate [+]”.
Consider `C[C@]12CC[C@@H]3c4ccc(O)cc4CC[C@H]3[C@@H]1CC[C@@H]2O` [ESTRADIOL], for which the IC50 was 84.8 µM in [2] and 1.1 µM in data set [5]. Further, the Activity result in [8] was “is not an inhibitor [-]”.
In the case of `CN[C@@H](C)Cc1ccccc1` [METHAMPHETAMINE], the IC50 in data set [1] was 248 µM.
Turning to `NC[C@H](O)c1ccc(O)c(O)c1` [NOREPINEPHRINE], the IC50 in data set [2] came out at 11000 µM; in data set [5], 434 µM.
Regarding `CC(=O)[C@H]1CC[C@H]2[C@@H]3CCC4=CC(=O)CC[C@]4(C)[C@H]3CC[C@]12C` [PROGESTERONE], the figures for the IC50 in data set [2] and in data set [5] were 1.6 µM and 10.5 µM, respectively. The Activity entry in data set [9] was “inhibitor [+]”.
For the molecule `NCCc1c[nH]c2ccc(O)cc12` [SEROTONIN], the IC50 in data set [1] is 97 µM.
Turning to `C[C@]12CC[C@H]3[C@@H](CCC4=CC(=O)CC[C@@]43C)[C@@H]1CC[C@@H]2O` [TESTOSTERONE], the Activity entry in data set [10] was “is not an inhibitor [-]”.

B1: Solute carrier family 22 member 3 (Rattus norvegicus) (protein)
chain: MPTFDQALRKAGEFGRFQRRVFLLLCLTGVTFAFLFVGVVFLGSQPDYYWCRGPRATALAERCAWSPEEEWNLTTPELHVPAERRGQGHCHRYLLEDTNTSSELSCDPLAAFPNRSAPLVPCSGDWRYVETHSTIVSQFDLVCGNAWMLDLTQAILNLGFLAGAFTLGYAADRYGRLIVYLISCFGVGITGVVVAFAPNFSVFVIFRFLQGVFGKGAWMTCFVIVTEIVGSKQRRIVGIVIQMFFTLGIIILPGIAYFTPSWQGIQLAISLPSFLFLLYYWVVPESPRWLITRKQGEKALQILRRVAKCNGKHLSSNYSEITVTDEEVSNPSCLDLVRTPQMRKCTLILMFAWFTSAVVYQGLVMRLGLIGGNLYMDFFISGLVELPGALLILLTIERLGRRLPFAASNIVAGVSCLVTAFLPEGIPWLRTTVATLGRLGITMAFEIVYLVNSELYPTTLRNFGVSLCSGLCDFGGIIAPFLLFRLAAIWLELPLIIFGILASVCGGLVMLLPETKGIALPETVEDVEKLGSSQLHQCGRKKKTQVSTSNV
As to B1, the Michaelis constant (Km) in data set [11] amounted to 91 µM; in data set [12], 24 µM.
